Test results reported in patent publication US20260108584A1, “TREATMENT OF OBESITY-ASSOCIATED INFLAMMATORY CONDITIONS” (THE UNIVERSITY OF BIRMINGHAM, priority 2023, published 2026).

Columns and labels:
[1] = tested on: leukocyte trafficking; test: Prophylactic PEPITEM, 6 weeks HFD: leukocyte subsets by flow cytometry; type: in vivo, C57BI/6J wild type (WT) mice
Description: (§1) Eight-week-old, male, C57BI/6J wild type (WT) mice were purchased from Charles River and were maintained in a specific pathogen free facility, with free access to food. Environmental conditions were: 21±2° C., 55±10% relative humidity and a 12 hour light-dark cycle. Mice were fed high fat diet (HFD) containing 60% fat (cat no. D12492, Research Diets, INC) for up to 12 weeks. Alzet mini pumps 2006 (Charles River) containing 3.5 mg/ml of PEPITEM (SVTEQGAELSNEER-PEG (352)-Amide; Cambridge Research Biochemicals Limited; Cambridge, UK) or phosphate buffered saline (PBS) were implanted at baseline (prophylactic administration) or following 6 weeks of HFD (therapeutic administration), continuously releasing 0.822 mg of content/week. Body weight was assessed weekly. Intraperitoneal glucose tolerance tests (IPGTT) were assessed at 3, 6, 8, and 12 weeks in mmol/l using Contour XT glucometer as described in Nasteska, D. et al., JCI Insight 6, doi: 10.1172/jci.insight. 140288 (2021). Mice were culled […] blood collected into ethylenediaminetetraacetic acid (EDTA) coated eppendorfs^RTM. The peritoneal cavity was lavaged with 5 mM EDTA, spleen and inguinal lymph nodes were isolated and stored in PBS. Gonadal visceral fat pads and abdominal subcutaneous fat was stored in RPMI 1640 media (Gibco) containing 2% BSA and pancreas was FFPE as described in Nasteska, D. et al (supra).
(§2) All tissue samples were weighed prior to processing. Fat tissue was broken into pieces, incubated in an enzyme cocktail consisting of 200 μg/ml Collagenase P (Sigma), 800 μg/ml Collagenase Dispase, 100 μg/ml DNase (both Merck) diluted in Roswell Park Memorial Institute medium (RPMI) containing 2% fetal bovine serum (FBS) at 37° C. for 30 min before being passed through 70 UM filter. Samples were washed by centrifugation in RPMI containing 2% FBS at 400 g (g-force) for 10 minutes and the stromal vascular fraction re-suspended in red blood cell (RBC) lysis buffer for 10 minutes. Samples were then washed by centrifugation at 400 g and re-suspended in RPMI containing 2% FBS. The spleen and lymph node were crushed through a […] filter. Spleen, lymph node and blood samples were all incubated in the RBC lysis buffer as described prior to re-suspension in magnetic-activated cell sorting (MACS) buffer. Peritoneal lavage fluid (PLF) were centrifuged at 400 g for 5 minutes and the cells were resuspended in MACS buffer.
(§3) All samples were blocked with Fc receptor (FcR) blocker (Miltenyi Biotec) prior to staining with the following of antibodies and Zombie Aqua (Biolegend) for 20 minutes at 4° C. prior to washing and fixation with 2% paraformaldehyde (PFA): anti-CD45.2 BV605 (clone 104; Biolegend), anti-CD3 PECy7 (clone 145-2c11), anti-CD4 eFluor450 (clone GK1.5), anti-CD8 PE-TexasRed ^RTM (clone 5H10), anti-CD44 FITC (clone IM7), anti-CD25 AF700 (clone PC61.5), anti-KLRG1 APC-eFluor780 (clone 2F1), anti-CD62L PE (clone MEL-14), anti-CD19-APC (clone 1D3), anti-CD45 APC-CY7 (clone 104), F4/80 FITC (clone BM8), anti-CD11c PE-Cy7 (clone N418), anti-Gp38 PE (clone 8.1.1; all from Thermofisher); anti-CD23 BV421 (clone B3B4), anti-CD93 BV650 (clone AA4.1), anti-CD43 PerCp-Cy5.5 (clone S7), anti-CD21/35 PE (clone 7G6), anti-Siglec F TexasRed^RTM (clone E50-2440), Ly6G APC (clone 1A8; all from BD). Compensation controls were generated using the cells isolated from the spleen. Immediately prior to analysis CountBright beads (Invitrogen) were added and samples were acquired using Fortessa-X20 and data analysed offline using FlowJo^RTM (V-10.2.6) (FIG. 4).

[2] = Prophylactic PEPITEM, 6 weeks HFD: body weight and IPGTT; type: in vivo, C57BI/6J wild type (WT) mice
Description: as §1

[3] = tested on: pancreatic islets; test: Prophylactic PEPITEM, 6 weeks HFD: pancreatic islet immunofluorescence imaging; type: in vivo, C57BI/6J wild type (WT) mice
Description: (§4) Eight-week-old, male, C57BI/6J wild type (WT) mice were purchased from Charles River and were maintained in a specific pathogen free facility, with free access to food. Environmental conditions were: 21±2° C., 55±10% relative humidity and a 12 hour light-dark cycle. Mice were fed high fat diet (HFD) containing 60% fat (cat no. D12492, Research Diets, INC) for up to 12 weeks. […] Body weight was assessed weekly. Intraperitoneal glucose tolerance tests (IPGTT) were assessed at 3, 6, 8, and 12 weeks in mmol/l using Contour XT glucometer as described in Nasteska, D. et al., JCI Insight 6, doi: 10.1172/jci.insight. […]
(§5) Slides were imaged using Zeiss Axioscan 7 Slide Scanner at 20× magnification using the same acquisition parameters for each slide. Images were initially processed with ZEN Software (Black Edition v2.2) into digital arrays, which were subsequently analysed with ImageJ (1.53K). […] Average number of islets and islet area were determined and expressed as number or area/10,000 μm^2 of the whole pancreatic section area, as previously described by Slavin, B et al., Anat. […]

[4] = Therapeutic PEPITEM (last 6 of 12 weeks HFD): body weight and IPGTT; type: in vivo, C57BI/6J wild type (WT) mice
Description: as §1

[5] = tested on: pancreatic islets; test: Therapeutic PEPITEM (last 6 of 12 weeks HFD): pancreatic islet immunofluorescence imaging; type: in vivo, C57BI/6J wild type (WT) mice
Description: as §4, §5

[6] = tested on: leukocyte trafficking; test: Therapeutic PEPITEM (last 6 of 12 weeks HFD): leukocyte subsets by flow cytometry; type: in vivo, C57BI/6J wild type (WT) mice
Description: as §1, §2, §3

[7] = tested on: J774 murine macrophages cells; test: In vitro cytokine analysis, LPS-stimulated J774 cells (ELISA); type: cell-based; conditions: 10 ng ml^−1 PEPITEM 15 minutes pre-treatment, LPS (10 μg ml^−1) 24 h, vs PBS (FIG. 7)
Description: J774 murine macrophages cells were pre-treated with 10 ng ml^−1 PEPITEM (SVTEQGAELSNEER; Cambridge Research Biochemicals Limited; Cambridge, UK) or phosphate buffered saline (PBS—as control) for 15 minutes and then stimulated with LPS (10 μg ml^−1) for 24 h. Cell supernatants were collected and analysed for the protein expression of IL-6 and TNF-α by ELISA.

PEPITEM [SVTEQGAELSNEER, 14-amino-acid immunopeptide derived from 14.3.3.ζδ]
number of T-cell subsets, B-cell subsets, neutrophils, eosinophils or macrophages in the blood, inguinal lymph node or spleen ([1]; 6 weeks HFD, prophylactic (FIG. 6)): no effect
T-cells (CD3+) in visceral adipose tissue ([1]; 6 weeks HFD, prophylactic, vs HFD control (FIG. 1(E))): Significantly fewer
CD4+ T cells in visceral adipose tissue ([1]; 6 weeks HFD, prophylactic, vs HFD control (FIG. 1(F))): Significantly fewer
KLRG1+CD3+ T-cells in visceral adipose tissue ([1]; 6 weeks HFD, prophylactic, vs HFD control (FIG. 1(G))): Significantly fewer
T-cells (CD3+) in peritoneal cavity ([1]; 6 weeks HFD, prophylactic, vs HFD control (FIG. 1(H))): Significantly fewer
KLRG1+CD3+ T-cells in peritoneal cavity ([1]; 6 weeks HFD, prophylactic, vs HFD control (FIG. 1(I))): Significantly fewer
macrophages within the peritoneal cavity ([1]; 6 weeks HFD, prophylactic, vs PBS (FIG. 1(J)), back to levels of chow-fed mice): significant reduction
absolute numbers of macrophages in the VAT ([1]; HFD-fed mice, model (6 or 12 weeks) not specified): did not influence
body weight ([2]; 6 weeks HFD, prophylactic mini pump, vs PBS (FIG. 5(A))): unaffected
fasting glucose tolerance or insulin resistance ([2]; week 3 or 6 of HFD, prophylactic, vs PBS (FIG. 5(B))): no effect
number of pancreatic islets ([3]; vs PBS (FIG. 1(C))): no effect
individual area of pancreatic islets ([3]; vs PBS (FIG. 1(D))): significantly reduced
glucose tolerance ([4]; 8 or 12 weeks of diet, therapeutic (FIG. 5(D))): no effect
weight of the mouse ([4]; 12 weeks HFD, therapeutic (FIG. 5(C))): no effect
overall number of islets ([5]; vs control mice (FIG. 2(B))): without affecting
pancreatic islet size ([5]; vs control mice (FIG. 2(C))): significantly reduced
CD3+KLRG1+ T-cells numbers in the peritoneal cavity ([6]; therapeutic (FIG. 2(H))): no effect
number of CD3+KLRG1+ T-cells in the blood ([6]; therapeutic (FIG. 2(I))): lower
number of age-associated B-cells in the blood ([6]; therapeutic (FIG. 2(J))): lower
number of neutrophils in the blood ([6]; therapeutic (FIG. 2(K))): lower
composition of leukocyte subsets in subcutaneous adipose tissue ([6]; therapeutic (data not shown)): no effect
B-cell numbers in the spleen ([6]; therapeutic, vs PBS (FIG. 3(E))): elevated
age-associated B-cell numbers in the spleen ([6]; therapeutic, vs PBS (FIG. 3(F))): elevated
number of CD45+ leukocytes in the spleen ([6]; therapeutic, vs control animals (FIG. 3(A))): increased
number of CD3+ T-cells in the spleen ([6]; therapeutic, vs control animals (FIG. 3(B))): increased
number of CD45+ leukocytes in the inguinal lymph node ([6]; therapeutic, vs control animals (FIG. 3(C))): increased
number of CD3+ T-cells in the inguinal lymph node ([6]; therapeutic, vs control animals (FIG. 3(D))): increased
number of CD3+ T-cells in the VAT ([6]; therapeutic, vs vehicle control (FIG. 2(D))): significant reduction
number of CD4+ T-cells in the VAT ([6]; therapeutic, vs vehicle control (FIG. 2(E))): significant reduction
number of CD3+KLRG1+ T-cells in the VAT ([6]; therapeutic, vs vehicle control (FIG. 2(F))): significant reduction
macrophage numbers in the peritoneal cavity ([6]; therapeutic, vs vehicle control (FIG. 2(G))): significant reduction
amount of IL-6 secreted [7]: significant reduction
amount of TNFalpha secreted [7]: significant reduction
